{"source": "patent US20260144768A1", "about": "“MODIFIED RELEASE GAMMA-HYDROXYBUTYRATE FORMULATIONS HAVING IMPROVED PHARMACOKINETICS” (Flamel Ireland Limited, priority 2022, published 2026)", "origin": "cited, not measured here", "key": {"mouse": {"system": "mouse", "conditions": "2-year study"}, "rat [1]": {"system": "rat", "conditions": "2-year study"}, "rats [2]": {"system": "rats"}, "pregnant rats": {"system": "pregnant rats", "conditions": "150, 350, or 1,000 mg/kg/day oral"}, "rats [3]": {"system": "rats", "conditions": "150, 350, or 1,000 mg/kg/day oral"}, "CYP2D6": {"target": "CYP2D6 (Homo sapiens, UniProt P10635)", "sequence (P10635 whole entry)": "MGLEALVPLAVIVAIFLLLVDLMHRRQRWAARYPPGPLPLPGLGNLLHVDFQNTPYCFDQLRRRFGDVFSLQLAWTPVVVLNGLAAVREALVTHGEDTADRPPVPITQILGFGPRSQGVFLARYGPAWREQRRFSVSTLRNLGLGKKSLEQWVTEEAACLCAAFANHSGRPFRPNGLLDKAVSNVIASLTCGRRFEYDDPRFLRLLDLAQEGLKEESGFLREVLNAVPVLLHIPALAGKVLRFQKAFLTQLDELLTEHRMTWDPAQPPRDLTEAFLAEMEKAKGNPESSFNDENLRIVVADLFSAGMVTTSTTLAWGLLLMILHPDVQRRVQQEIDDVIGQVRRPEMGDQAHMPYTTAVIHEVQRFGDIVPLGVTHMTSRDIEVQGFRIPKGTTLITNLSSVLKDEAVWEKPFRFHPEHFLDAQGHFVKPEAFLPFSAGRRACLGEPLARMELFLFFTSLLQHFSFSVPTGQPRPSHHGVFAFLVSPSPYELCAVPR", "conditions": "up to 3 mM (378 mcg/mL)"}, "[4]": {"conditions": "6 g per day (2 × 3 g) with ibuprofen 800 mg/dose four times per day"}, "rat [5]": {"system": "rat", "conditions": "in vivo"}, "bacterial gene mutation": {"system": "bacterial gene mutation", "conditions": "in vitro"}, "pregnant rabbits": {"system": "pregnant rabbits", "conditions": "300, 600, or 1,200 mg/kg/day oral"}, "CYP2E1": {"target": "CYP2E1 (Homo sapiens, UniProt P05181)", "sequence (P05181 whole entry)": "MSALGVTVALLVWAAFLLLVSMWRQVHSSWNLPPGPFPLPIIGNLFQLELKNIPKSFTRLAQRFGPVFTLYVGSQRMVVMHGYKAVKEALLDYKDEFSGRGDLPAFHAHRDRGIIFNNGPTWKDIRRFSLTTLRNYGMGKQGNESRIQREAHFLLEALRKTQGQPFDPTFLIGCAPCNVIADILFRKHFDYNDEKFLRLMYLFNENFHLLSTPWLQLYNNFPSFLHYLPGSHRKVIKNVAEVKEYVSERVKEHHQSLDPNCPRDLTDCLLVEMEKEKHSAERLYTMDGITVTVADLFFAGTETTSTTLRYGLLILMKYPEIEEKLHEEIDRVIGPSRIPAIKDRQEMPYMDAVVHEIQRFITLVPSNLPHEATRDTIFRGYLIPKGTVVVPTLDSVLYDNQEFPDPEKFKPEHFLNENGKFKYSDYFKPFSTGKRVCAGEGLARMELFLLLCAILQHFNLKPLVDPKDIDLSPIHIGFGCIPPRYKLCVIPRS", "conditions": "up to 3 mM (378 mcg/mL)"}, "CYP1A2": {"target": "T1, CYP1A2 (Homo sapiens, UniProt P05177)", "T1 sequence (P05177 1-516)": "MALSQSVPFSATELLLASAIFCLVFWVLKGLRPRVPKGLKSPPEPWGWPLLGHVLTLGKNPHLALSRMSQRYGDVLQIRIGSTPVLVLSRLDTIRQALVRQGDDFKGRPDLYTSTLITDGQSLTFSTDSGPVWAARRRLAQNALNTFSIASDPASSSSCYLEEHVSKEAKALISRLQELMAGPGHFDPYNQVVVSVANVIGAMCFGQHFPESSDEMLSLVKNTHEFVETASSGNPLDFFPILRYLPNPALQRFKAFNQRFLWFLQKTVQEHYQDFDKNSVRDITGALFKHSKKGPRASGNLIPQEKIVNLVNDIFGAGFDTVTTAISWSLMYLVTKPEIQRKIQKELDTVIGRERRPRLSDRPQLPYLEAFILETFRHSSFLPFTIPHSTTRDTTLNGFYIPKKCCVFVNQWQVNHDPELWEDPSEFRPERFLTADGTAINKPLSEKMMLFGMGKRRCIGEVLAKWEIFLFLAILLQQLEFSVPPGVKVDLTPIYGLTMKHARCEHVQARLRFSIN", "conditions": "up to 3 mM (378 mcg/mL)"}, "mammalian cells": {"system": "mammalian cells", "conditions": "in vitro"}, "CYP3A": {"system": "CYP3A", "conditions": "up to 3 mM (378 mcg/mL)"}, "CYP2C19": {"target": "CYP2C19 (Homo sapiens, UniProt P33261)", "sequence (P33261 whole entry)": "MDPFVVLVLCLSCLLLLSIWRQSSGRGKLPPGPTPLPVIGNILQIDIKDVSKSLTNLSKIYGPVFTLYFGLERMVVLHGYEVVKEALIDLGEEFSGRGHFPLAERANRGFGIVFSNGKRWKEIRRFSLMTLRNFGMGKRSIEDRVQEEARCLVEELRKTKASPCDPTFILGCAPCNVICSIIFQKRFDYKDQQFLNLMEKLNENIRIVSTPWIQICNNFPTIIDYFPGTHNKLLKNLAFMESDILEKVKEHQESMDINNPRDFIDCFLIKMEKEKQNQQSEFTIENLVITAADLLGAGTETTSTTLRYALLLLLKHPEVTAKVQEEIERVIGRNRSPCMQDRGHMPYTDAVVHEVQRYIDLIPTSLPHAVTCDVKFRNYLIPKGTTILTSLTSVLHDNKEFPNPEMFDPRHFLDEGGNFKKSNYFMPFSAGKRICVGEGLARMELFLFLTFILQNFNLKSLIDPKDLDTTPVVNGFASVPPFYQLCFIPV", "conditions": "up to 3 mM (378 mcg/mL)"}, "CYP2C9": {"target": "CYP2C9 (Homo sapiens, UniProt P11712)", "sequence (P11712 whole entry)": "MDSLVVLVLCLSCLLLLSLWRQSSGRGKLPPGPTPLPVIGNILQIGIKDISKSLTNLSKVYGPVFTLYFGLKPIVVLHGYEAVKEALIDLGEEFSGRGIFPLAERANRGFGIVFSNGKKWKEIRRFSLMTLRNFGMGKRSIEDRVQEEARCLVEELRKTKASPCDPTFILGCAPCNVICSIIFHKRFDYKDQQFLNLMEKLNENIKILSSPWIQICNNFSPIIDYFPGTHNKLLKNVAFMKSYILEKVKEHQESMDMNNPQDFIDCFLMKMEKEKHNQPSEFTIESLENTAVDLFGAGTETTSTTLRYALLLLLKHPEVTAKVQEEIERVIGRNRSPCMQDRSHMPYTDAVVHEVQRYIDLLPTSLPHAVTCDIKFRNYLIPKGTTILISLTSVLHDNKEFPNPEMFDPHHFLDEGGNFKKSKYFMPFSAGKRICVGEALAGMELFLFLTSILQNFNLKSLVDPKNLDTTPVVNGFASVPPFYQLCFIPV", "conditions": "up to 3 mM (378 mcg/mL)"}, "rats [6]": {"system": "rats", "remark": "listed apart in the source"}, "plasma proteins": {"system": "plasma proteins", "conditions": "GHB 3 mcg/mL to 300 mcg/mL"}, "[7]": {"experiment": "not given", "remark": "listed apart in the source"}}, "note": "Where two headings read alike, the source gives them in different places."}
{"compound": "O=C1CCCO1", "note": "[gamma-butyrolactone]", "values": [{"measurement": "Carcinogenic activity", "setting": "mouse", "value": "no clear evidence of carcinogenic activity"}, {"measurement": "Carcinogenic activity", "setting": "rat [1]", "value": "no clear evidence of carcinogenic activity"}]}
{"compound": "O=C([O-])CCCO.[Na+]", "note": "[sodium oxybate, sodium 4-hydroxybutyrate]", "values": [{"measurement": "Mortality", "setting": "rats [2]; 0, 100, 300, or 900 mg/kg/day, two highest doses", "value": "mortality was observed"}, {"measurement": "Findings at the highest dose tested", "setting": "rats [2]; 900 mg/kg/day", "value": "Reduced body weight gain in males and females and delayed sexual maturation in males"}, {"measurement": "Developmental toxicity", "setting": "pregnant rats", "value": "no clear evidence of developmental toxicity"}, {"measurement": "Effects on fertility", "setting": "rats [3]", "value": "no adverse effects on fertility"}, {"measurement": "Inhibition of CYP2D6 activity", "setting": "CYP2D6", "value": "does not significantly inhibit"}, {"measurement": "Systemic exposure to GHB on co-administration", "setting": "[4]", "value": "comparable"}, {"measurement": "Micronucleus", "setting": "rat [5]", "value": "negative"}, {"measurement": "Bacterial gene mutation", "setting": "bacterial gene mutation", "value": "negative"}, {"measurement": "Developmental toxicity", "setting": "pregnant rabbits", "value": "no clear evidence of developmental toxicity"}, {"measurement": "Inhibition of CYP2E1 activity", "setting": "CYP2E1", "value": "does not significantly inhibit"}, {"measurement": "Inhibition of CYP1A2 activity", "setting": "CYP1A2", "value": "does not significantly inhibit"}, {"measurement": "Chromosomal aberration", "setting": "mammalian cells", "value": "negative"}, {"measurement": "Inhibition of CYP3A activity", "setting": "CYP3A", "value": "does not significantly inhibit"}, {"measurement": "Inhibition of CYP2C19 activity", "setting": "CYP2C19", "value": "does not significantly inhibit"}, {"measurement": "Inhibition of CYP2C9 activity", "setting": "CYP2C9", "value": "does not significantly inhibit"}, {"measurement": "Plasma exposure (AUC) relative to humans at the MRHD of 9 g per night", "setting": "rats [6]; highest dose tested", "value": 2, "unit": "times"}, {"measurement": "Tumors", "setting": "rats [6]; oral doses up to 1,000 mg/kg/day", "value": "no increase in tumors"}]}
{"compound": "O=C(O)CCCO", "note": "[GHB, gamma-hydroxybutyrate]", "values": [{"measurement": "Bound to plasma proteins", "setting": "plasma proteins", "value": "less than 1%"}, {"measurement": "Apparent volume of distribution", "setting": "in vivo", "value": "0.19 to 0.384", "unit": "L/kg"}, {"measurement": "Elimination half-life", "setting": "in vivo", "value": "30 to 60", "unit": "min"}, {"measurement": "Unchanged drug in human urine", "setting": "within 6 to 8 hours after dosing", "value": "less than 5%"}, {"measurement": "Apparent oral clearance", "setting": "[7]; Child's Class A", "value": 4.5, "unit": "mL/min/kg"}, {"measurement": "Mean t1/2", "setting": "[7]; Child's Class A", "value": 32, "unit": "min"}, {"measurement": "Apparent oral clearance", "setting": "[7]; Child's Class C", "value": 4.1, "unit": "mL/min/kg"}, {"measurement": "Mean t1/2", "setting": "[7]; Child's Class C", "value": 59, "unit": "min"}, {"measurement": "Mean t1/2", "setting": "[7]; control patients", "value": 22, "unit": "min"}, {"measurement": "Apparent oral clearance", "setting": "[7]; healthy adults", "value": 9.1, "unit": "mL/min/kg"}]}
